Entries after “also recorded” stand apart in the source; their conditions may differ.

Experiment [1] deals with rabbit ASM tissues. The experiment can be described thus: Constrictor responsiveness to acetylcholine (ACh) in isolated rabbit ASM tissues, isometric tension in organ bath. The settings on record: tissues exposed 24 hr to the agent. The source says: (§1) Detection of PDE4D5 mRNA transcripts: Total RNA was extracted from the cultured ASM cells using the TRIzol method (Invitrogen), and cDNAs were isolated by RT-PCR using the SuperScript First Strand Synthesis System kit from Invitrogen, with the following oligonucleotide primer sets (Integrated DNA Technologies): for PDE4D5, 5′-[…]-3′ (forward; SEQ ID NO: 2) and 5′-[…]-3′ (reverse; SEQ ID NO: 3); and for β-actin, 5′-[…]-3′ (forward; SEQ ID NO: 4) and 5′-[…]-3′ (reverse; SEQ ID NO: 5). The reaction volume was 20 μl and cycling conditions used were 35 cycles of 30 sec denaturation at 95° C., followed by 30 sec annealing at 60° C. and elongation at 72° C. for 30 sec. Ex-Tag (Takara Biotechnology) was used as DNA polymerase. […] Following protein extraction and the addition of gel-loading buffer, the extracts were loaded on a 10% SDS-PAGE gel for immunoblotting after transfer to a PVDF membrane. The membranes were then incubated overnight with monoclonal mouse anti-human primary antibodies directed against phospho-CREB and -ATF1, phospho-ERK1/2, or α-actin, and levels were detected by ECL after a 1-hr incubation with a 1:2,000 dilution of HRP-conjugated rabbit anti-mouse secondary antibody, followed by exposure to autoradiography film. The protein band intensities were quantified by densitometry. siRNA-mediated knockdown of PKA: ASM cells were seeded into 6-well plates and, at ˜40% confluency, the medium was replaced with the reduced serum-containing medium, Opti-MEM (Invitrogen). The cells were then transfected twice during a 24-hr interval with two pools of three siRNA duplexes, each pool targeted against the human PKAα or PKAγ catalytic subunits (Santa Cruz Biotechnology; sc-36240 and sc-36236, respectively), or with a non-targeted control (scrambled) siRNA duplex, using Oligofectamine (Invitrogen) as the transfection agent. The pools of siRNAs were applied to each well at a final concentration of 100 nM for each siRNA preparation. […] Transfection of ASM cells with adeno-βARK-ct: Adenovirus (adeno)-βARK-ct, an adenovirus vector encoding the βARK1 carboxyl-terminal domain which blocks Gβγ signaling (25,26), and adeno-β-gal, an adenovirus vector expressing lacZ as a negative control, were constructed using the AdenoX adenovirus construction kit (BD-Clontech). Recombinant plaques were isolated and propagated in HEK293 cells (Invitrogen), with viral purification using the cesium chloride gradient method, and viral titer detected by plaque assay. The ASM cells were transfected with either of the adenoviral vectors at a multiplicity of infection (MOI) of 100, and experiments were conducted at 24 hr following adenoviral tranfections. Pharmacodynamic studies of constrictor and relaxation responsiveness in rabbit ASM tissues: Following initial sedation and subsequent general anesthesia with intramuscular injections of xylazine (10 mg/kg) and ketamine (50 mg/kg), respectively, rabbits were sacrificed with an intravenously administered overdose of sodium pentobarbital (100 mg/kg). As described previously (16), the tracheae were excised via open thoracotomy, the loose connective tissue and epithelium were scraped and removed, and the tracheae were divided into 8 ring segments, each of 6-8 mm in length. […] After these incubations, the tissues were placed in organ baths containing modified Krebs-Ringer solution aerated with 5% CO2 in oxygen (pH of 7.35-7.40), and attached to force transducers to continuously monitor isometric tension. […] The constrictor and relaxation dose-response curves were analyzed with respect to each tissue's maximal isometric contractile force (Tmax) to ACh and maximal relaxation response (Rmax) to isoproterenol from the initial level of active cholinergic contraction. Statistical analyses: Results are expressed as mean±SE values. Comparisons between groups were made using the Student's t-test (two-tailed) or ANOVA with Tukey's post-test analysis, where appropriate.

The test system of experiment [2] is ERK1/2. The experiment can be described thus: Immunoblot analysis of ERK1/2 phosphorylation in ASM cells. The format is cell-based, human. The settings on record: isoproterenol or salmeterol 10 μM.
Text: as §1
(In general: Immunoblotting shows a protein as a band on a membrane.)

Experiment [3] relates to human ASM cells. The experiment can be described thus: Assay of cAMP accumulation in cultured human ASM cells. The format is cell-based. The note with it: isoproterenol 1.0 μM, 5 min; PGE2 100 nM or salmeterol 10 μM x 24 hr; no rolipram. The source says:
Animals: Adult New Zealand White rabbits were used in this study, which was approved by the Biosafety and Animal Research Committee of the Joseph Stokes Research Institute at Children's Hospital of Philadelphia. The animals had no signs of respiratory disease for several weeks before the study, and their care and use were in accordance with the “Guide for the Care and Use of Laboratory Animals” prepared by the Institute of Laboratory Animal Resources, National Research Council. Culture and treatment of ASM cells: The human ASM cells were grown in SmBm media supplemented with 10% FBS (BioWhittaker) and maintained throughout in a humidified incubator containing 5% CO2 in air at 37° C. The experimental protocols involved growing the cells to ˜95% confluence in the above medium. […] Assay of cAMP accumulation: In initial studies, intracellular cAMP levels were determined in near confluent ASM cell cultures at varying times following treatment of ASM cells with varying concentrations of isoproterenol (0.1 to 100 μM). […]
Thereafter, in the continued presence of these treatments, cells were exposed for 5 min to isoproterenol (10 μM) at 37° C., and intracellular cAMP concentrations were determined per manufacturer's protocols using a direct cAMP Enzyme Immunoassay Kit (R&D Systems, Minneapolis, Minn.). In both cases, the cAMP measurements were expressed in units of picomoles/milligram protein.
(Changes in cAMP serve as a functional read-out for many G protein-coupled receptors.)

For experiment [4], the system named is rabbit ASM tissues. The experiment can be described thus: Relaxation responsiveness to isoproterenol in isolated rabbit ASM tissues half-maximally contracted with ACh.
Text: as §1

Experiment [5] deals with CREB/ATF1. The experiment can be described thus: Immunoblot analysis of CREB/ATF1 phosphorylation in ASM cells. Type of experiment: cell-based, human. The note with it: PGE2 100 nM; isoproterenol 10 μM.
Text: as §1

In experiment [6] the test system is human ASM cells. The experiment can be described thus: Assay of cAMP PDE activity in ASM cell lysates. The format is cell-based. The protocol:
Assay of cAMP PDE activity: Levels of cAMP PDE activity were assayed in ASM cell lysates using a colorimetric, non-radioactive enzymatic assay kit from Biomol, as per the manufacture's protocol. PDE activity was determined following exposure of ASM cells for 24 hr to either vehicle alone (control), PGE2 (100 μM), or forskolin (100 μM) in the absence and presence of pretreatment with rolipram (10 μM), cycloheximide (100 μM), actinomycin D (4 μM), or H89 (10 μM).
In each case, the measured levels of PDE activity were standardized to the protein content in the cell extracts.

Experiment [7] deals with PDE4D5 mRNA. The experiment can be described thus: Detection of PDE4D5 mRNA transcripts by RT-PCR in ASM cells. The format is cell-based, human. The settings on record: PGE2 100 nM, salmeterol or isoproterenol 10 μM.
Text: as §1

In the case of `OCc1cc(C(O)CNCCCCCCOCCCCc2ccccc2)ccc1O` (centres unmarked) [salmeterol], the “constrictor responsiveness to ACh relative to vehicle-treated controls” value in experiment [1] is listed as “significantly increased constrictor responses”. In addition, the “time of peak ERK1/2 phosphorylation” value in experiment [2] (PGE2 100 nM) amounted to 20 min. Besides, the “ERK1/2 phosphorylation in cells treated with the agent” value in experiment [2] (PGE2 or forskolin 100 nM) is given as “increased phosphorylation of ERK1/2; also recorded: enhanced ERK1/2 phosphorylation”. Further, the “isoproterenol-induced cAMP accumulation after 24 hr exposure to the agent” value in experiment [3] is “significantly reduced cAMP responses; also recorded: markedly attenuated”. In addition, in experiment [4] (mean±SE, tissues exposed 24 hr to the agent (PGE2 100 nM; salmeterol 10 μM)), the “maximal relaxation (Rmax) response to isoproterenol” value is listed as 33.39±5.1%. In addition, in experiment [4] (tissues exposed 24 hr to the agent), the “relaxation responsiveness to isoproterenol relative to vehicle-treated controls” value is “impaired relaxation responses”. Moreover, the “phosphorylation of CREB and ATF1 in cells treated with the agent” value in experiment [5] is “Qualitatively similar temporal changes”. The “cAMP PDE (PDE4) activity relative to vehicle-treated control cells” value in experiment [6] (cells exposed 24 hr to the agent) was “significantly increased”. Further, the “PDE activity, fold above control” value in experiment [6] (cells incubated 24 hr with the agent (PGE2 or forskolin 100 μM; salmeterol or isoproterenol 10 μM)) is listed as roughly 2 fold. The “time of peak PDE4D5 mRNA induction” value in experiment [7] came out at 6 h. For the same molecule, the “peak PDE4D5 mRNA expression, fold above unstimulated cells” value in experiment [7] (densitometric analysis, 3 experiments) was 7.3 fold.

The values above are taken from US8569229B2, “Compositions and methods which modulate G-protein signaling for the treatment of inflammatory disorders such as asthma and allergic conjunctivitis” (The Children's Hospital of Philadelphia, priority 2008, dated 2013).
